# System: E. oblique
# Experiment: Field trapping test with sex pheromone lures in traps, tea plantation
# Format: in vivo, Ectropis oblique
# Conditions: lures with (3Z,6Z,9Z)-octadecatriene
# Description: Embodiment 9: Field trapping tests were carried out at a tea plantation of Jintan Xinpin Tea Industry Co., Ltd., Changzhou City, Jiangsu Province. Sex pheromone lures used in the tests were made according to the schemes described in Embodiments 3-8, and a blank control was a lure made of n-hexane. The sex pheromone lure was used with a trap, each treatment process was repeated 3 times, and the number of trapped male pests in one month was counted.
# (§1) Embodiment 50: Field trapping tests were carried out at the tea plantation of Jintan Xinpin Tea Industry Co., Ltd., Changzhou City, Jiangsu Province. Sex pheromone lures used in the test were made according to the schemes described in Embodiments 10-49, and a blank control was the lures made of n-hexane. The sex pheromone lures were used with a trap, each treatment process was repeated for 3 times, and the number of trapped insects in one month was counted.
# as §1, with “53:” for “50:”, “51-52,” for “10-49,”, “in Embodiment 12.” for “of n-hexane.”, “lure was” for “lures were”, “repeated” for “repeated for”
# as §1, with “54:” for “50:”, “Embodiment 12.” for “Embodiments 10-49, and a blank control was the lures made of n-hexane.”, “lure was” for “lures were”
row,Structure (SMILES),Trapping effect on E. oblique (in words)
1,"CC/C=C\C[C@H]1O[C@H]1C/C=C\CCCCCCCC [(3Z,9Z,6R,7S)-6,7-epoxy-octadecadiene]",certain trapping capacity
2,"CC/C=C\C/C=C\C[C@H]1O[C@H]1CCCCCCCC [(3Z,6Z,9R,10S)-9,10-epoxy-octadecadiene]",no trapping effect at all
3,"CCCCCCCC/C=C\C/C=C\C[C@@H]1O[C@@H]1CC [(6Z,9Z,3R,4S)-3,4-epoxy-octadecadiene]",no trapping effect at all
4,"CCCCCCCC/C=C\C/C=C\C[C@H]1O[C@H]1CC [(6Z,9Z,3S,4R)-3,4-epoxy-octadecadiene]",no trapping effect at all
5,"CC/C=C\C/C=C\C[C@@H]1O[C@@H]1CCCCCCCC [(3Z,6Z,9S,10R)-9,10-epoxy-octadecadiene]",no trapping effect at all
6,"CC/C=C\C[C@@H]1O[C@@H]1C/C=C\CCCCCCCC [(3Z,9Z,6S,7R)-6,7-epoxy-octadecadiene]",certain trapping capacity

# From US20230202995A1, “HIGH EFFICIENT SEX PHEROMONE LURES FOR ECTROPIS OBLIQUE AND ECTROPIS GRISESCENS” (CHANGZHOU UNIVERSITY, priority 2021, published 2023)
